# Source: PubChem BioAssay AID1053201 (The Scripps Research Institute Molecular Screening Center, 2014)
# The source made the active and inactive calls. No rule for the calls is given here.
# System: methionyl-tRNA synthetase (Trypanosoma brucei brucei)
# Assay: T. brucei MetRS enzyme inhibitors, late-stage follow-up, biochemical, radioactivity, assay provider, round 3 (AID 1053201)
# Details: recombinant T. brucei MetRS enzyme, [3H]methionine tRNA aminoacylation filter assay, 2 h, stronger effect = higher value
Compound,inhibition (at 10 µM),"inhibition (inhibition, at 1 µM) [%]"
CCN(CC)C(=O)C(=O)c1cn(CC(=O)Nc2cc(Oc3ccc(F)cc3)cc(C(F)(F)F)c2)c2ccccc12,97.3%,93.1
CCN(CC)C(=O)C(=O)c1cn(CC(=O)Nc2cc(Oc3ccccc3F)cc(C(F)(F)F)c2)c2ccccc12,95.6%,91.9
O=C(Cn1cc(C(=O)C(=O)NCc2ccccc2)c2ccccc21)Nc1cc(Oc2ccccc2)cc(C(F)(F)F)c1,47.9% (inactive),9.14
CCN(CC)C(=O)Cc1cn(CC(=O)Nc2cccc(C(F)(F)F)c2)c2ccccc12,-16.7% (inactive),-13.1
CCN(CC)C(=O)C(=O)c1cn(CCNc2cccc(C(F)(F)F)c2)c2ccccc12,-18.4% (inactive),-21.5
CCN(CC)C(=O)C(=O)c1cn(CCNc2cc(Oc3ccccc3)cc(C(F)(F)F)c2)c2ccccc12,8.12% (inactive),-20.2

# The remaining lines, values ahead:
inhibition (at 10 µM),"inhibition (inhibition, at 1 µM) [%]",Compound
43.1% (inactive),-5.91,Nc1c(Cl)ncnc1Nc1ccc(C(=O)O)cc1
98.2%,94.7,CCN(CC)C(=O)C(=O)c1cn(CC(=O)Nc2cc(Oc3ccccc3OC)cc(C(F)(F)F)c2)c2ccccc12
94.1%,92.3,CCN(CC)C(=O)C(=O)c1cn(CC(=O)Nc2cc(Oc3ccc(OC)cc3)cc(C(F)(F)F)c2)c2ccccc12
23.3% (inactive),-10.2,O=C(Cc1ccc(Nc2nc3ccc(Br)cc3[nH]2)cc1)NCCc1cccs1
